Experimental data reported in PMC9747124 (Clinical and Translational Science, 2022).
Where two headings read alike, the source gives them in different places.

Key:
patients with RMS [1] = details: cited from earlier work; for Annualized relapse rate (ARR): 75 mg b.i.d.
[2] = data not shown for high-fat or moderate-fat meal; internal report; cited from earlier work
patients with RMS [3] = type: in vivo, human
patients with RMS [4] = details: 75 mg q.d. while fasted; over 24 weeks, maintained through week 48; cited from earlier work
[5] = Population PK model of evobrutinib; type: in vivo, human; details: for Increase of bioavailability with food compared with when fasted: population PK model covariate effect
[6] = between-participant variability, final PK model

Patients exceeding AUC0-24,SS > 400 ng/ml h ([5]; 75 mg b.i.d. treatment arm in the phase II study): all patients
ω^2 ALAG, Estimate (RSE %) [5, 6]: 0.317 (83.3)
ω^2 CL/F, Estimate (RSE %) [5, 6]: 0.257 (18.1)
ω^2 D1 fasted, Estimate (RSE %) [5, 6]: 0.784 (38.3)
ω^2 D1 fed, Estimate (RSE %) [5, 6]: 0.784 (38.3)
ω^2 Q/F, Estimate (RSE %) [5, 6]: 1.25 (18.2)
ω^2 V2/F, Estimate (RSE %) [5, 6]: 0.566 (32.9)
ω^2 V3/F, Estimate (RSE %) [5, 6]: 1.82 (15.2)
Cov CL/F + ALAG, Estimate (RSE %) ([5]; covariance, final PK model): 0.0572 (120)
Cov Q/F + V3/F, Estimate (RSE %) ([5]; covariance, final PK model): 1.09 (17.3)
Residual variability: Additive error ([5]; final PK model): 0.272 ng/mL
Residual variability: Proportional error ([5]; final PK model): 0.509
ALAG (lag time) ([5]; final PK model, week 48): 0.197 h
K a (absorption rate constant) ([5]; final PK model, week 48): 0.793 h⁻¹
V3/F (apparent volume of distribution of the peripheral compartment) ([5]; final PK model, week 48): 385 L
CL/F (apparent clearance) ([5]; final PK model, week 48, value for healthy participants): 269 L/h
Vd/F ([5]; human, in vivo): 50.8 L
AUC(0-t) ([5]; human, in vivo, 75 mg): 835 ng·h/mL
Cmax ([5]; human, in vivo, 75 mg): 168 ng/mL
Increase of bioavailability with food compared with when fasted [5]: about 50%
Increase of bioavailability with food compared with when fasted ([5]; listed as Evobrutinib): 49%
SMILES: C=CC(=O)N1CCC(CNc2ncnc(N)c2-c2ccc(Oc3ccccc3)cc2)CC1 [evobrutinib, Evobrutinib]
Clinical efficacy on any end points compared with placebo (patients with RMS [1]; 25 mg q.d.): did not show clinical efficacy
Annualized relapse rate (ARR) (patients with RMS [1]; 48-week double-blind period): 0.11
Annualized relapse rate (ARR) (patients with RMS [1]; 108-week period (48-week double-blind plus 60-week open-label extension)): 0.12
Increase of bioavailability by dosing with food [2]: about 50%
exp(B1), level of ARR for high values of the AUC (patients with RMS [3]; ARR versus exposure model estimate): 0.11
Mean ARR (patients with RMS [3]; highest three exposure quintiles (starting at an AUC of 356 ng/ml h)): ≤ 0.14
Total cumulative number of T1 Gd+ lesions compared with placebo (patients with RMS [4]): reduction
